Values after ≈ are worked out from the molar mass of the structure shown. Like-named read-outs stand apart in the source and are kept apart here. Numbered stars: 1 amine (or outer) side, 2 acyl side, 3 side chain; on linkers, the order of the positions; unused ones are H or OH. Bridge positions count the residues as written; N and C are the ends. Side chains are listed from the residue outwards. Peptide text beside a SMILES is read from it. * marks the point of attachment. C20 diacid = O=C(O)CCCCCCCCCCCCCCCCCCC(=O)*; γGlu = O=C(O)[C@H](CCC(=O)[*:2])N[*:1]

Here are results for three molecules from US9023789B2, “Amylin analogs and pharmaceutical compositions thereof” (Novo Nordisk A/S, priority 2012, dated 2015).

The nature of data set [1]: ASSAY (IV) determination of solubility. It is filed as physicochemical. In a few lines: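 Samples of polypeptide, prepared from a water stock at […] and diluted 1:1 into 100 mM buffers spanning pH 3.0 to 8.0, stood 18 hours at room temperature. Polypeptide concentration was then determined by UPLC following centrifugation.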
In data set [2] the target is T1, human calcitonin (a) receptor in BHK570 cells (Homo sapiens, UniProt P30988).
T1 construct: expressed in transfected cells
T1 sequence (P30988 25-474): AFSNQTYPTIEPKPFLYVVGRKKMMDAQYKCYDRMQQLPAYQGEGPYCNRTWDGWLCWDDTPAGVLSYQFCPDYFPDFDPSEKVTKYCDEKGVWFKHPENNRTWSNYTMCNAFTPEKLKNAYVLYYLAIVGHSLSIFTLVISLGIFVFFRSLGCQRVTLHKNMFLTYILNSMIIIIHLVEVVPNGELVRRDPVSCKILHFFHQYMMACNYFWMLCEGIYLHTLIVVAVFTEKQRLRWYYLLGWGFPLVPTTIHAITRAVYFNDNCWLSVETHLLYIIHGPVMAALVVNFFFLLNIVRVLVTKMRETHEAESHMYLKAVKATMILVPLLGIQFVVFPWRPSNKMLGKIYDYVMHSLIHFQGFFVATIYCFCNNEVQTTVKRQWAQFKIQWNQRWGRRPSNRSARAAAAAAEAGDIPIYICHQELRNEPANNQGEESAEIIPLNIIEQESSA
Put plainly: ASSAY (II)a functional assay, human calcitonin receptor (CRE luciferase). It is filed as cell-based. Particulars: read-out: hCTR funct. EC50. In short, it runs like this:
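Read-out: CRE-driven luciferase luminescence, single photon counting, after 30 min at room temperature with LucLite. BHK cells expressed calcitonin receptor alone or with RAMP-3 (amylin 3(a)). Cells were stimulated 3 h at 37° C in DMEM, 10% FBS, 10 mM Hepes, pH 7.4.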

For data set [3], the target named is T2, human calcitonin receptor (Homo sapiens, UniProt P30988).
T2 construct: expressed in transfected cells
T2 sequence (P30988 25-474): T1 sequence (P30988 25-474)
Put plainly: ASSAY (VII) binding to the human calcitonin receptor (SPA, 125I-Calcitonin).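 Also: cell membranes (35 ng/µL) combined with SPA beads in 40 µL of pH 7.4 Hepes buffer, 384-well format, signal counted on a TopCounter instrument.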 Particulars: read-out: hCTR bind IC50.

Data set [4] addresses T3, rat amylin receptor (rat calcitonin receptor + rat RAMP 3) (Rattus norvegicus, UniProt P32214+Q9JJ73).
T3 construct: expressed in transfected cells; host or cells: BHK tk'ts 13 (transient, FuGENE 6), membranes
T3 sequence (P32214 25-479 isoform P32214-2 limits assumed): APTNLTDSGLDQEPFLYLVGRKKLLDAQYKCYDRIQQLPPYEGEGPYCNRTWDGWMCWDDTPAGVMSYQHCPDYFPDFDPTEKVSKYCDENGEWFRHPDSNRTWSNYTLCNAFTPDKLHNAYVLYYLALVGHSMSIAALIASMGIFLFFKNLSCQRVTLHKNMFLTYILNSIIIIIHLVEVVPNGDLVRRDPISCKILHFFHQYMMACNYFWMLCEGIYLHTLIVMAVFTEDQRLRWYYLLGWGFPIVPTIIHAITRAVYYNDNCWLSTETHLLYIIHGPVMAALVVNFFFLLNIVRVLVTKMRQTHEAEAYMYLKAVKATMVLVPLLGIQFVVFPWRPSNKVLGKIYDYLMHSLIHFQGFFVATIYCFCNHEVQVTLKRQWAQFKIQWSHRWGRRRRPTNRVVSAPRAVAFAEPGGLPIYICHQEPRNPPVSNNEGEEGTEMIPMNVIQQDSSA
T3 sequence (Q9JJ73 23-147 partner): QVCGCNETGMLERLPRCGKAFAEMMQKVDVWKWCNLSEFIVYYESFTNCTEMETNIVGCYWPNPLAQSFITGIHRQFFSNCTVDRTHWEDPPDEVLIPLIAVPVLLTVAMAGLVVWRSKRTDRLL
Put plainly: ASSAY (VI) binding to the rat amylin receptor. Particulars: for IC50: binding to rat amylin receptor, read-out: rAmylin-R bind IC50. In short, it runs like this:
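The cell-membrane assay assessed binding at the rat amylin receptor. BHK tk′ts 13 cells were transfected transiently with rat calcitonin receptor, with FuGENE® 6 (Roche) as the transfection reagent, used per the manufacturer's recommendations. Approximately 48 hours after transfection the cells were harvested, and membranes were prepared for measuring binding.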

For another data set, the target named is T4, rat calcitonin receptor (Rattus norvegicus, UniProt P32214).
T4 construct: expressed in transfected cells; host or cells: BHK tk'ts 13 (transient, FuGENE 6), membranes
T4 sequence (P32214 25-479 isoform P32214-2 limits assumed): T3 sequence (P32214 25-479 isoform P32214-2 limits assumed)
As to the kind of experiment: ASSAY (VIII) binding to the rat calcitonin receptor. The following applies: Table 7, read-out: rCTR bind IC50. In short, it runs like this:
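Cell membranes for binding came from BHK tk′ts 13 cells harvested approximately 48 hours after transient transfection with the rat receptor.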

[5] abbreviates: bistrispropane buffer, pH 6.5, read-out: Solubility pH 6.5 Concentration.
Where [6] appears, read: bistrispropane buffer, pH 7.5, read-out: Solubility pH 7.5 Concentration.
[7] abbreviates: bistrispropane buffer, pH 6.0, read-out: Solubility pH 6.0 Concentration.
Where [8] appears, read: bistrispropane buffer, pH 7.0, read-out: Solubility pH 7.0 Concentration.
[9] abbreviates: bistrispropane buffer, pH 8.0, read-out: Solubility pH 8.0 Concentration.
[10] abbreviates: glycylglycine buffer, pH 3.0, read-out: Solubility pH 3.0 Concentration.
The mark [11] stands for this setting: glycylglycine buffer, pH 4.0, read-out: Solubility pH 4.0 Concentration.
[12] abbreviates: glycylglycine buffer, pH 5.0, read-out: Solubility pH 5.0 Concentration.
[13] abbreviates: Table 7, rat binding selectivity, rCTR IC50 / rAmylin-R IC50.
Where [14] appears, read: Table 7a (preferred compounds), rat binding selectivity, rCTR IC50 / rAmylin-R IC50.
[15] abbreviates: ratio of rCTR bind IC50 to rAmylin-R bind IC50.

As for `CC[C@H](C)[C@H](NC(=O)[C@H](C)NC(=O)CNC(=O)[C@H](Cc1ccccc1)NC(=O)[C@H](CC(N)=O)NC(=O)[C@@H]1CCCN1C(=O)[C@H](CO)NC(=O)[C@H](CO)NC(=O)[C@H](Cc1c[nH]cn1)NC(=O)[C@H](CCCNC(=N)N)NC(=O)[C@H](CC(C)C)NC(=O)[C@H](Cc1ccccc1)NC(=O)[C@H](CC(N)=O)NC(=O)[C@H](C)NC(=O)[C@H](CC(C)C)NC(=O)[C@H](CCCNC(=N)N)NC(=O)[C@H](CCC(N)=O)NC(=O)[C@@H](NC(=O)[C@H](C)NC(=O)[C@@H]1CSSC[C@H](NC(=O)[C@H](CCCNC(=N)N)NC(=O)[C@@H](N)CCCCNC(=O)CC[C@H](NC(=O)CCCCCCCCCCCCCCCCCCC(=O)O)C(=O)O)C(=O)N[C@@H](CC(N)=O)C(=O)N[C@@H]([C@@H](C)O)C(=O)N[C@@H](C)C(=O)N[C@@H]([C@@H](C)O)C(=O)N1)[C@@H](C)O)C(=O)N1CCC[C@H]1C(=O)N[C@@H](CO)C(=O)N[C@@H](CO)C(=O)N[C@H](C(=O)N[C@@H](CC(N)=O)C(=O)N[C@H](C(=O)NCC(=O)N[C@@H](CO)C(=O)N[C@@H](Cc1c[nH]cn1)C(=O)N[C@H](C(=O)N[C@@H](Cc1ccc(O)cc1)C(N)=O)[C@@H](C)O)C(C)C)[C@@H](C)O` [Example 44] (H-K([γGlu-C20 diacid])RCNTATCATQRLANFLRHSSPNFGAIPSSTNVGSHTY-NH2; disulfide 3-8), the solubility at 18 h in data set [1] (setting [5]) was ≥ 200 µM; in data set [1] (setting [6]), 87 µM (≈ 397 µg/mL); in data set [1] (setting [7]), ≥ 200 µM; in data set [1] (setting [8]), ≥ 200 µM; in data set [1] (setting [9]) it was 39 µM (≈ 178 µg/mL); in data set [1] (setting [10]), ≥ 200 µM. For the same molecule, the solubility at 18 h in data set [1] (setting [11]) and in data set [1] (setting [12]) was ≥ 200 µM in each case. Further, in data set [2], the EC50 was 4.75 nM. Also, the values for the IC50 (in data set [3]; in data set [4] (Table 7); at rat calcitonin receptor) were 4.87 nM, 0.369 nM and 19.7 nM, respectively. Moreover, the “Ratio rCT/rAmylin binding” value in data set [4] (setting [13]), in data set [4] (setting [14]) and in data set [4] (setting [15]) was 53.3 in each case.
As to `CC[C@H](C)[C@H](NC(=O)[C@H](C)NC(=O)CNC(=O)[C@H](Cc1ccccc1)NC(=O)[C@H](CC(N)=O)NC(=O)[C@@H]1CCCN1C(=O)[C@H](CO)NC(=O)[C@H](CO)NC(=O)[C@H](Cc1c[nH]cn1)NC(=O)[C@H](CCCNC(=N)N)NC(=O)[C@H](CC(C)C)NC(=O)[C@H](Cc1ccccc1)NC(=O)[C@H](CC(N)=O)NC(=O)[C@H](C)NC(=O)[C@H](CC(C)C)NC(=O)[C@H](CCCNC(=N)N)NC(=O)[C@H](CCC(N)=O)NC(=O)[C@@H](NC(=O)[C@H](C)NC(=O)[C@@H]1CSSC[C@H](NC(=O)[C@@H](N)CCCCNC(=O)CC[C@H](NC(=O)CCCCCCCCCCCCCCCCCCC(=O)O)C(=O)O)C(=O)N[C@@H](CC(N)=O)C(=O)N[C@@H]([C@@H](C)O)C(=O)N[C@@H](C)C(=O)N[C@@H]([C@@H](C)O)C(=O)N1)[C@@H](C)O)C(=O)N1CCC[C@H]1C(=O)N[C@@H](CO)C(=O)N[C@@H](CO)C(=O)N[C@H](C(=O)N[C@@H](CC(N)=O)C(=O)N[C@H](C(=O)NCC(=O)N[C@@H](CO)C(=O)N[C@@H](CC(N)=O)C(=O)N[C@H](C(=O)N[C@@H](Cc1ccc(O)cc1)C(N)=O)[C@@H](C)O)C(C)C)[C@@H](C)O` [Example 48], the solubility at 18 h in data set [1] (setting [5]), in data set [1] (setting [6]), in data set [1] (setting [7]), in data set [1] (setting [8]), in data set [1] (setting [9]) and in data set [1] (setting [10]) was ≥ 200 µM in each case. Further, the solubility at 18 h in data set [1] (setting [11]) and in data set [1] (setting [12]) was ≥ 200 µM throughout. Further, the concentration giving a half-maximal response (EC50) in data set [2] came out at 1.97 nM. For the same molecule, the IC50 stood at 30.9 nM in data set [3], 0.558 nM in data set [4] (Table 7) and 112 nM at rat calcitonin receptor. Besides, the “Ratio rCT/rAmylin binding” value in data set [4] (setting [13]), in data set [4] (setting [14]) and in data set [4] (setting [15]) was 201.3 each time.
Regarding `CC[C@H](C)[C@H](NC(=O)[C@H](C)NC(=O)CNC(=O)[C@H](Cc1ccccc1)NC(=O)[C@H](CC(N)=O)NC(=O)[C@@H]1CCCN1C(=O)[C@H](CO)NC(=O)[C@H](CO)NC(=O)[C@H](Cc1c[nH]cn1)NC(=O)[C@H](CCCNC(=N)N)NC(=O)[C@H](CC(C)C)NC(=O)[C@H](Cc1ccccc1)NC(=O)[C@H](CC(N)=O)NC(=O)[C@H](C)NC(=O)[C@H](CC(C)C)NC(=O)[C@H](CCCNC(=N)N)NC(=O)[C@H](CCC(N)=O)NC(=O)[C@@H](NC(=O)[C@H](C)NC(=O)[C@@H]1CSSC[C@H](NC(=O)[C@@H](N)CCCCNC(=O)COCCOCCNC(=O)CC[C@H](NC(=O)CCCCCCCCCCCCCCCCCCC(=O)O)C(=O)O)C(=O)N[C@@H](CC(N)=O)C(=O)N[C@@H]([C@@H](C)O)C(=O)N[C@@H](C)C(=O)N[C@@H]([C@@H](C)O)C(=O)N1)[C@@H](C)O)C(=O)N1CCC[C@H]1C(=O)N[C@@H](CO)C(=O)N[C@@H](CO)C(=O)N[C@H](C(=O)N[C@@H](CC(N)=O)C(=O)N[C@H](C(=O)NCC(=O)N1CCC[C@H]1C(=O)N[C@@H](CC(N)=O)C(=O)N[C@H](C(=O)N[C@@H](Cc1ccc(O)cc1)C(N)=O)[C@@H](C)O)C(C)C)[C@@H](C)O` [Example 50], the solubility at 18 h in data set [1] (setting [5]), in data set [1] (setting [6]), in data set [1] (setting [7]), in data set [1] (setting [8]), in data set [1] (setting [9]) and in data set [1] (setting [10]) was ≥ 200 µM each time. Besides, the solubility at 18 h in data set [1] (setting [11]) and in data set [1] (setting [12]) was ≥ 200 µM throughout. In data set [2], the concentration giving a half-maximal response (EC50) was 0.662 nM. The half-maximal inhibitory concentration (IC50) in data set [3] came to 1.38 nM; in data set [4] (Table 7) it was 0.069 nM; at rat calcitonin receptor, 5.63 nM. Further, the “Ratio rCT/rAmylin binding” value in data set [4] (setting [13]), in data set [4] (setting [14]) and in data set [4] (setting [15]) was 81.7 in each case.
